According to patent US4570006A, “Amidine compound, process for producing same and anti-complement agent comprising same” (Torii & Co. Ltd., priority 1981, dated 1986):

What was measured:
[1] = system: complement; test: Inhibition of complement mediated hemolysis; type: cell-based
Procedure: The complement mediated hemolysis is widely used as a means to determine the titration of complement. The principle of this method is based on the fact that hemolysis if caused by the activation of complement, when the latter is added to a complex (immune complex) of erythrocytes and the antibody thereof. The degree of hemolysis varies in proportion to the amount of complement added. Therefore, when a known amount of complement admixed with a Cl esterase inhibitor is used, the hemolysis must be suppressed in proportion to the inhibitory activity.
The anti-Cl esterase (Clr, Cls) activity was determined according to the method of Okamura et al. [K. Okamura, M. Muramatsu and B. Fujii, Biochem. Biophys. […] The figures in Table 2 have the following meanings: […]

[2] = target: T1, Cls (Homo sapiens, UniProt P09871); test: Anti-Cl esterase activity, Cls (ATEE hydrolysis); type: biochemical; settings: hydrolysis of ATEE; read-out: Anti-Cl activity, Cls (50% inhibition)
T1 sequence (P09871 438-688 limits assumed): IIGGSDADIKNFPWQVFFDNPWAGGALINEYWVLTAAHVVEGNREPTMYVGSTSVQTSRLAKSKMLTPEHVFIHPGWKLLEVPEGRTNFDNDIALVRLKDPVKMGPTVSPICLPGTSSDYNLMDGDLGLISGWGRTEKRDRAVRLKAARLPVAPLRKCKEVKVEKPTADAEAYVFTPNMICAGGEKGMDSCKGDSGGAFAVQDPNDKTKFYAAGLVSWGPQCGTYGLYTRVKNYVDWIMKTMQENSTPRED
T1 sequence (P09871 16-437 limits assumed): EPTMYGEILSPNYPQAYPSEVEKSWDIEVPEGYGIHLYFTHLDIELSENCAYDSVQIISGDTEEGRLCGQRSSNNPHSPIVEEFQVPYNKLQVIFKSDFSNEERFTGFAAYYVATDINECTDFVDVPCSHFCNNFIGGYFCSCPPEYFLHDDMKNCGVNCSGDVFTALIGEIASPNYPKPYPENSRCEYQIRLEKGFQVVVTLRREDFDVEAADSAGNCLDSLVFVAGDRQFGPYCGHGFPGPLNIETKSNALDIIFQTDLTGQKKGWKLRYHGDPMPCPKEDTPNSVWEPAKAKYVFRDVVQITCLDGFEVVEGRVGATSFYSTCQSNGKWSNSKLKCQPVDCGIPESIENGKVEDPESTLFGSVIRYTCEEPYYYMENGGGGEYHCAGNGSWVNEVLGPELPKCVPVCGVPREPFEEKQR
Procedure: The anti-Cl esterase (Clr, Cls) activity was determined according to the method of Okamura et al. [K. Okamura, M. Muramatsu and B. Fujii, Biochem. Biophys. […] The figures in Table 2 have the following meanings:
Cls: Molar concentration of the test compound which inhibits 50% of the ability of Cls to hydrolyse ATEE (acetyltyrosin ethyl ester).

[3] = target: T2, Clr (Homo sapiens, UniProt P00736); test: Anti-Cl esterase activity, Clr (AAME hydrolysis); type: biochemical; settings: hydrolysis of AAME; read-out: Anti-Cl activity, Clr (ID50)
T2 sequence (P00736 464-705 limits assumed): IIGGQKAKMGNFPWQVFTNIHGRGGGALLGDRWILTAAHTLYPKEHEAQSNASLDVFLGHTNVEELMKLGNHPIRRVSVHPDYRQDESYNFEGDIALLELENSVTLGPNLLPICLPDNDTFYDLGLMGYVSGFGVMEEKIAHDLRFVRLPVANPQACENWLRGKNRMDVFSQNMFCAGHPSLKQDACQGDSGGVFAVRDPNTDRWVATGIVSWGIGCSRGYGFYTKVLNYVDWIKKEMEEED
T2 sequence (P00736 18-463 limits assumed): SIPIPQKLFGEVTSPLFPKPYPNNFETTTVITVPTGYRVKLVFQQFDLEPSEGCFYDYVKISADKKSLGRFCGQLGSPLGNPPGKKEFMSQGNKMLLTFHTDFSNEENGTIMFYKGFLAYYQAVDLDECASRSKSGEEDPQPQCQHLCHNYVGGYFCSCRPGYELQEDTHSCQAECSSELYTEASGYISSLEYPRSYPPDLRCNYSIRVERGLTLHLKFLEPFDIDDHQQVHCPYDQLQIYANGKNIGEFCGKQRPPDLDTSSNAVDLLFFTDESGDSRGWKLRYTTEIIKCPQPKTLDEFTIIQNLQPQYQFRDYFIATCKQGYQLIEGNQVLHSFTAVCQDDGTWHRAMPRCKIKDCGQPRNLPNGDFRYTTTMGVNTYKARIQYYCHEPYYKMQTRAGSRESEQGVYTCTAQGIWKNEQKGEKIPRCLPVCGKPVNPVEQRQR
Procedure: The anti-Cl esterase ([…]) activity was determined according to the method of Okamura et al. [K. Okamura, M. Muramatsu and B. Fujii, Biochem. Biophys.

[4] = system: Kallikrein; test: Anti-kallikrein activity (inhibition of TAME hydrolysis); type: biochemical; settings: read-out: ID50, kallikrein
Procedure: (§1) The anti-trypsin, anti-plasmin, anti-kallikrein and anti-thrombin activities were determined according to the method of Muramatsu et al. [M. Muramatsu, T. Onishi, S. Makino, Y. Hayashi and S. Fujii, J. of Biochem., 58, 214 (1965)]. The data summarized in Table 1 are expressed in terms of molar concentration (ID50) of the test compound which inhibits 50% of the activity of each enzyme to hydrolyze TAME (tosylarginine methyl ester). The compound No. corresponds to the compound number shown in Examples.

[5] = target: Plasmin (Homo sapiens, UniProt P00747); test: Anti-plasmin activity (inhibition of TAME hydrolysis); type: biochemical; settings: read-out: ID50, plasmin
Plasmin, sequence (P00747 581-810 limits assumed, species assumed): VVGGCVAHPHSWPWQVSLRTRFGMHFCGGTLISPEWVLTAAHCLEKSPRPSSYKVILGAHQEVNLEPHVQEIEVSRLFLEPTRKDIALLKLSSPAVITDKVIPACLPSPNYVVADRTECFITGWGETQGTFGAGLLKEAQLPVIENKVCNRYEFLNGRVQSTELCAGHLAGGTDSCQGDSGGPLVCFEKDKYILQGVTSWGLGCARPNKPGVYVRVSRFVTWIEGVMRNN
Plasmin, sequence (P00747 97-580 limits assumed, species assumed): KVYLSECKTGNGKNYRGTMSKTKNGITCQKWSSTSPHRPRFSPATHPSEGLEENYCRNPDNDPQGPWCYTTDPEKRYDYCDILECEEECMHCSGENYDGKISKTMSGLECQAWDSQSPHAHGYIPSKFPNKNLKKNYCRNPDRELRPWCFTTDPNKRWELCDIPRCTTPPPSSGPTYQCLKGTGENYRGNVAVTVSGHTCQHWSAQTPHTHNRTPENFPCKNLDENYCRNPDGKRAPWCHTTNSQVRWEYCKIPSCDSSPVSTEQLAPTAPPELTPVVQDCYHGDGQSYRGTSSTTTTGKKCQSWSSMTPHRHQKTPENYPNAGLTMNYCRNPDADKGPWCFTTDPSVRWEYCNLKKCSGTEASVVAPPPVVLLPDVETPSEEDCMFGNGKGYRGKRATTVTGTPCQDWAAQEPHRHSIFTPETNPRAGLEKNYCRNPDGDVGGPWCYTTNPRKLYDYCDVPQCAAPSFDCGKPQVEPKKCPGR
Procedure: as §1

[6] = target: T3, Trypsin (Bos taurus, UniProt P00760); test: Anti-trypsin activity (inhibition of TAME hydrolysis); type: biochemical; settings: read-out: ID50, trypsin
T3 sequence (P00760 24-246): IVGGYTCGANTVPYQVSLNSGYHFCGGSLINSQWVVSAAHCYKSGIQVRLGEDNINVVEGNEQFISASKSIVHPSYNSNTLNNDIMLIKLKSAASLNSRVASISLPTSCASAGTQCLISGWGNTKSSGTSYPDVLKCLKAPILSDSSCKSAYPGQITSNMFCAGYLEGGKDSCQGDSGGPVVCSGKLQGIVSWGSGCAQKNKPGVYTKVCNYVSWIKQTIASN
Procedure: as §1

[7] = target: Thrombin (Homo sapiens, UniProt P00734); test: biochemical; settings: TAME hydrolysis; read-out: ID50, thrombin

Row | IC50 [4] | IC50 [5] | IC50 [6] | IC50 [7] | SMILES | Inhibition of complement mediated hemolysis (%) ([1]; compound at 1 × 10^-4) | Inhibition of complement mediated hemolysis (%) ([1]; compound at 1 × 10^-5) | Inhibition of complement mediated hemolysis (%) ([1]; compound at 1 × 10^-6) | Inhibition of complement mediated hemolysis (%) ([1]; compound at 1 × 10^-7) | IC50 [2] | IC50 [3]
1 | – | – | – | – | CCC(=Cc1ccc(NC(=N)N)cc1)C(=O)Oc1ccc(C(=N)N)cc1C(=O)c1ccccc1 [Compound 74] | 55.4% | 5.7% | 3.6% | 0% | 3 µM | > 10 µM
2 | – | – | – | – | Cc1cccc(Nc2ccccc2C(=O)Oc2ccc(C(=N)N)cc2C(=O)c2ccccc2)c1C [Compound 87] | 0% | 0% | 0% | 0% | 5 µM | > 10 µM
3 | – | – | – | – | N#Cc1ccc(C(=O)Oc2ccc(C(=N)N)cc2C(=O)c2ccccc2)cc1 [Compound 83] | 100% | 90.2% | 12.9% | – | 4 µM | 9 µM
4 | – | – | – | – | COC(=O)c1cc(C(=N)N)ccc1OC(=O)c1ccc(F)cc1 [Compound 84] | 98.6% | 67.7% | 2.0% | 0% | 0.4 µM | > 10 µM
5 | > 10 µM | 4 µM | > 10 µM | 0.5 µM | N=C(N)c1ccc(OC(=O)C2CC2)c([N+](=O)[O-])c1 [Compound 7, 4-amidino-2-nitrophenyl cyclopropanecarboxylate] | 99.0% | 78.2% | 10.2% | 1.7% | – | > 10 µM
6 | – | – | – | – | COc1cc(C(=N)N)ccc1OC(=O)c1ccc([N+](=O)[O-])c(C)c1 [Compound 80] | 66.5% | 6.9% | 0% | 0% | > 10 µM | > 10 µM
7 | 3 µM | 2 µM | 2 µM | – | N=C(N)c1ccc(OC(=O)C2CC2)c(C(=O)c2ccccc2)c1 [Compound 8] | – | 90.5% | 22.0% | 0% | – | > 10 µM
8 | > 10 µM | 0.6 µM | 0.3 µM | – | COC(=O)c1cc(C(=N)N)ccc1OC(=O)c1ccccc1 [Compound 25, 4-amidino-2-methoxycarbonylphenyl benzoate] | 100.0% | 93.1% | 38.6% | 11.6% | 0.2 µM | 4 µM
9 | – | – | – | – | COc1cc(C(=N)N)ccc1OC(=O)c1ccc(NC(=N)N)c(C)c1 [Compound 75] | 45.2% | 3.2% | 0% | 0% | 3 µM | 8 µM
10 | > 10 µM | > 10 µM | > 10 µM | > 10 µM | CC(=O)Oc1ccc(C(=N)N)cc1[N+](=O)[O-] [Compound 2, 4-amidino-2-nitrophenyl acetate] | 97.3% | 30.1% | 3.9% | 2.1% | – | –
11 | – | – | – | – | N=C(N)Nc1ccc(C(=O)Oc2ccc(C(=N)N)cc2C(=O)c2ccccc2)c(Cl)c1 [Compound 77] | 97.3% | 48.9% | 1.8% | 0% | 0.8 µM | > 10 µM
12 | – | – | – | – | Cc1cc(C(=O)Oc2ccc(C(=N)N)cc2C(=O)c2ccccc2)ccc1[N+](=O)[O-] [Compound 81] | 98.2% | 71.6% | 4.2% | 0% | > 10 µM | > 10 µM
13 | – | – | – | – | N=C(N)c1ccc(OC(=O)c2ccc(F)cc2)c([N+](=O)[O-])c1 [Compound 85] | 98.6% | 97.9% | 67.1% | 7.0% | 0.5 µM | 0.6 µM
14 | – | – | – | – | COc1cc(C(=N)N)ccc1OC(=O)CCCc1ccc([N+](=O)[O-])cc1 [Compound 82] | 29.8% | 0% | 0% | 0% | > 10 µM | > 10 µM
15 | – | – | – | – | COC(=O)c1cc(C(=N)N)ccc1OC(=O)c1ccc(NC(=N)N)cc1 [Compound 72] | 100% | 87.8% | 10.8% | 0% | 0.2 µM | 1 µM
16 | – | – | – | – | COc1cc(C(=N)N)ccc1OC(=O)c1ccc(NC(=N)N)cc1Cl [Compound 76] | 34.8% | 4.8% | 0% | 0% | > 10 µM | > 10 µM

Row | SMILES | IC50 [4] | IC50 [5] | IC50 [6] | IC50 [7] | Inhibition of complement mediated hemolysis (%) ([1]; compound at 1 × 10^-4) | Inhibition of complement mediated hemolysis (%) ([1]; compound at 1 × 10^-5) | Inhibition of complement mediated hemolysis (%) ([1]; compound at 1 × 10^-6) | Inhibition of complement mediated hemolysis (%) ([1]; compound at 1 × 10^-7) | IC50 [2] | IC50 [3]
17 | CC(=O)Oc1ccc(C(=N)N)cc1C(=O)c1ccccc1 [Compound 1, 4-amidino-2-benzoylphenyl acetate] | > 10 µM | > 10 µM | > 10 µM | > 10 µM | 95.9% | 37.3% | 16.0% | 0% | – | > 10 µM
